Assay results taken from publication PMC4823954, “From fighting depression to conquering tumors: a novel tricyclic thiazepine compound as a tubulin polymerization inhibitor” (Cell Death & Disease, 2016).

Columns and labels:
Test in all cases: KINOMEscan
Format in all cases: binding
Settings in all cases: read-out: % Ctrl
PHKG2 = biological target: T1, PHKG2 (Homo sapiens, UniProt P15735)
T1 construct: purchased DiscoveRx KINOMEscan
Procedure, shortened: (§1)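 Competition binding panel of 442 non-mutant kinases: test compound at 5 and 10 μM competed with an active-site-directed ligand for 1 h with shaking. Bound kinase was eluted with 0.5 μM ligand and quantified by qPCR; %Ctrl = (compound − positive control)/(DMSO − positive control) × 100, lower meaning tighter binding.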

NEK9 = biological target: T2, NEK9 (Homo sapiens, UniProt Q8TD19)
T2 construct: purchased DiscoveRx KINOMEscan
Procedure, shortened: as §1

ALK = biological target: T3, ALK (Homo sapiens, UniProt Q9UM73)
T3 construct: purchased DiscoveRx KINOMEscan
Procedure, shortened: as §1

EPHA7 = biological target: T4, EPHA7 (Homo sapiens, UniProt Q15375)
T4 construct: purchased DiscoveRx KINOMEscan
Procedure, shortened: as §1

WEE1 = biological target: T5, WEE1 (Homo sapiens, UniProt P30291)
T5 construct: purchased DiscoveRx KINOMEscan
Procedure, shortened: as §1

CAMK2D = biological target: T6, CAMK2D (Homo sapiens, UniProt Q13557)
T6 construct: purchased DiscoveRx KINOMEscan
Procedure, shortened: as §1

TNK2 = biological target: T7, TNK2 (Homo sapiens, UniProt Q07912)
T7 construct: purchased DiscoveRx KINOMEscan
Procedure, shortened: as §1

[1] = biological target: RPS6KA4(Kin.Dom.2-C-terminal) (Homo sapiens, UniProt O75676)
Procedure, shortened: as §1

TNK1 = biological target: T8, TNK1 (Homo sapiens, UniProt Q13470)
T8 construct: purchased DiscoveRx KINOMEscan
Procedure, shortened: as §1

PKN1 = biological target: T9, PKN1 (Homo sapiens, UniProt Q16512)
T9 construct: purchased DiscoveRx KINOMEscan
Procedure, shortened: as §1

EGFR(E746-A750del) = biological target: T10, EGFR(E746-A750del) (Homo sapiens, UniProt P00533, DEL746-750)
T10 construct: purchased DiscoveRx KINOMEscan

IKK-epsilon = biological target: T11, IKK-epsilon (Homo sapiens, UniProt Q14164)
T11 construct: purchased DiscoveRx KINOMEscan
Procedure, shortened: as §1

ERK5 = biological target: T12, ERK5 (Homo sapiens, UniProt Q13164)
T12 construct: purchased DiscoveRx KINOMEscan
Procedure, shortened: as §1

JNK2 = biological target: T13, JNK2 (Homo sapiens, UniProt P45984)
T13 construct: purchased DiscoveRx KINOMEscan
Procedure, shortened: as §1

TAOK3 = biological target: T14, TAOK3 (Homo sapiens, UniProt Q9H2K8)
T14 construct: purchased DiscoveRx KINOMEscan
Procedure, shortened: as §1

SgK110 = biological target: T15, SgK110 (Homo sapiens, UniProt P0C264)
T15 construct: purchased DiscoveRx KINOMEscan
Procedure, shortened: as §1

PAK7 = biological target: T16, PAK7 (Homo sapiens, UniProt Q9P286)
T16 construct: purchased DiscoveRx KINOMEscan
Procedure, shortened: as §1

YANK2 = biological target: T17, YANK2 (Homo sapiens, UniProt Q9NY57)
T17 construct: purchased DiscoveRx KINOMEscan
T17 sequence (Q9NY57 whole entry): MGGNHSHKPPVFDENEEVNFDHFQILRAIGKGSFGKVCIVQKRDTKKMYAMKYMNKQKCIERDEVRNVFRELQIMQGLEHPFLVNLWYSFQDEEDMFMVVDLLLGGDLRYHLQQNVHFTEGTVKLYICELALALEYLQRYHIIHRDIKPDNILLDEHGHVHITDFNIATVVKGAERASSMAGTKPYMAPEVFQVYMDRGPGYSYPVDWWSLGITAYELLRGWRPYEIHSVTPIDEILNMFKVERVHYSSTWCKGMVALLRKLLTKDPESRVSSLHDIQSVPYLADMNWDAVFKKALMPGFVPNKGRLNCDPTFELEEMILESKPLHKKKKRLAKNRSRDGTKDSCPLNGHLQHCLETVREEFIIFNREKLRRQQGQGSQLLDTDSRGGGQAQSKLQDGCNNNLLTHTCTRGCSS
Procedure, shortened: as §1

DRAK2 = biological target: T18, DRAK2 (Homo sapiens, UniProt O94768)
T18 construct: purchased DiscoveRx KINOMEscan
Procedure, shortened: as §1

MEK3 = biological target: T19, MEK3 (Homo sapiens, UniProt P46734)
T19 construct: purchased DiscoveRx KINOMEscan
T19 sequence (P46734 whole entry): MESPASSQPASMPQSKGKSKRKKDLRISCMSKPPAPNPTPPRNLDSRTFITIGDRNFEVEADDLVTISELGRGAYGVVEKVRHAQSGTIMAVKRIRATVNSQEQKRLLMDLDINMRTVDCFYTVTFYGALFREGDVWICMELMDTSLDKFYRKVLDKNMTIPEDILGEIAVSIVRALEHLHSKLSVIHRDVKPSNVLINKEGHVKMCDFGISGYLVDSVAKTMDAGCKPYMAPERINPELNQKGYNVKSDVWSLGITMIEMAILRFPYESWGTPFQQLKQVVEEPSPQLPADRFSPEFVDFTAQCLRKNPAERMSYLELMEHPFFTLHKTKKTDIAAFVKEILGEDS
Procedure, shortened: as §1

MAPKAPK2 = biological target: T20, MAPKAPK2 (Homo sapiens, UniProt P49137)
T20 construct: purchased DiscoveRx KINOMEscan
T20 sequence (P49137 whole entry): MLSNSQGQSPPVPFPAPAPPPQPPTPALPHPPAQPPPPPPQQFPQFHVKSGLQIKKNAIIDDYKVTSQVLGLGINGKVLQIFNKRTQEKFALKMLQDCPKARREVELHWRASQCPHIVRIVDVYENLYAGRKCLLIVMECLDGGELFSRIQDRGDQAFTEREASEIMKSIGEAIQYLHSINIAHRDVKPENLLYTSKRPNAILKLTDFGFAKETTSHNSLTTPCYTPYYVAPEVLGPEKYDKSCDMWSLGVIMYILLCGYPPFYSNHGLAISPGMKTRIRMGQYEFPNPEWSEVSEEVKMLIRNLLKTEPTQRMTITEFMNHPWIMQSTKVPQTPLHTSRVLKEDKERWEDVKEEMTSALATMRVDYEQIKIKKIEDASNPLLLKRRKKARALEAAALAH
Procedure, shortened: as §1

PRKR = biological target: T21, PRKR (Homo sapiens, UniProt P19525)
T21 construct: purchased DiscoveRx KINOMEscan
T21 sequence (P19525 whole entry): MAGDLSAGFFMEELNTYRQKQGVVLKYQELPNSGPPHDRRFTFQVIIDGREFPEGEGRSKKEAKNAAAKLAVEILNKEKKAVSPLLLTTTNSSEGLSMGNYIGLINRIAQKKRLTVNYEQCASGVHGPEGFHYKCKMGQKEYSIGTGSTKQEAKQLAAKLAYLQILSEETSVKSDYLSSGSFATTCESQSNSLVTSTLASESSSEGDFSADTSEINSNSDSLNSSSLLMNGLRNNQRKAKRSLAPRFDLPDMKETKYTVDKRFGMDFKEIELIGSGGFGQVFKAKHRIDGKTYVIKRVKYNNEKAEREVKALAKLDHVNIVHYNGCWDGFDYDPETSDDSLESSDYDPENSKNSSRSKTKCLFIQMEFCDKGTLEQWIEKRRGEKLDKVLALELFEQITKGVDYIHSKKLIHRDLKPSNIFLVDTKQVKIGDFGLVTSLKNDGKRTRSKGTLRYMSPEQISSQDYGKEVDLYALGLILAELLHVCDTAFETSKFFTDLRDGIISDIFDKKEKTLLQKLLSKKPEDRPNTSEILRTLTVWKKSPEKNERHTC
Procedure, shortened: as §1

MST1 = biological target: T22, MST1 (Homo sapiens, UniProt Q13043)
T22 construct: purchased DiscoveRx KINOMEscan
T22 sequence (Q13043 whole entry): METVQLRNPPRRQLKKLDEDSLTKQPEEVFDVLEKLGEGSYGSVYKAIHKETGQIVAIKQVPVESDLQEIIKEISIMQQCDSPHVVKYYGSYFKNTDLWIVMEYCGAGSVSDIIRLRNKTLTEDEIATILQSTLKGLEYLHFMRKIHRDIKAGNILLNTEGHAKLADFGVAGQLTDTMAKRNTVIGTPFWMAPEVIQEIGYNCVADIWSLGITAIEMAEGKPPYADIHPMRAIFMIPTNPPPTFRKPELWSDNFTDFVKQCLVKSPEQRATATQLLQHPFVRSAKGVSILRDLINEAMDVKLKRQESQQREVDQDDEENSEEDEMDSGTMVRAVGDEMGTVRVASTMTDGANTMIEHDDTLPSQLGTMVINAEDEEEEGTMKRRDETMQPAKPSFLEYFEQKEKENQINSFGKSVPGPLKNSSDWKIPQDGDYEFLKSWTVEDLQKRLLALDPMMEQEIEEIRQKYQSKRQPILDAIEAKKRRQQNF
Procedure, shortened: as §1

HIPK2 = biological target: T23, HIPK2 (Homo sapiens, UniProt Q9H2X6)
T23 construct: purchased DiscoveRx KINOMEscan
T23 sequence (Q9H2X6 whole entry): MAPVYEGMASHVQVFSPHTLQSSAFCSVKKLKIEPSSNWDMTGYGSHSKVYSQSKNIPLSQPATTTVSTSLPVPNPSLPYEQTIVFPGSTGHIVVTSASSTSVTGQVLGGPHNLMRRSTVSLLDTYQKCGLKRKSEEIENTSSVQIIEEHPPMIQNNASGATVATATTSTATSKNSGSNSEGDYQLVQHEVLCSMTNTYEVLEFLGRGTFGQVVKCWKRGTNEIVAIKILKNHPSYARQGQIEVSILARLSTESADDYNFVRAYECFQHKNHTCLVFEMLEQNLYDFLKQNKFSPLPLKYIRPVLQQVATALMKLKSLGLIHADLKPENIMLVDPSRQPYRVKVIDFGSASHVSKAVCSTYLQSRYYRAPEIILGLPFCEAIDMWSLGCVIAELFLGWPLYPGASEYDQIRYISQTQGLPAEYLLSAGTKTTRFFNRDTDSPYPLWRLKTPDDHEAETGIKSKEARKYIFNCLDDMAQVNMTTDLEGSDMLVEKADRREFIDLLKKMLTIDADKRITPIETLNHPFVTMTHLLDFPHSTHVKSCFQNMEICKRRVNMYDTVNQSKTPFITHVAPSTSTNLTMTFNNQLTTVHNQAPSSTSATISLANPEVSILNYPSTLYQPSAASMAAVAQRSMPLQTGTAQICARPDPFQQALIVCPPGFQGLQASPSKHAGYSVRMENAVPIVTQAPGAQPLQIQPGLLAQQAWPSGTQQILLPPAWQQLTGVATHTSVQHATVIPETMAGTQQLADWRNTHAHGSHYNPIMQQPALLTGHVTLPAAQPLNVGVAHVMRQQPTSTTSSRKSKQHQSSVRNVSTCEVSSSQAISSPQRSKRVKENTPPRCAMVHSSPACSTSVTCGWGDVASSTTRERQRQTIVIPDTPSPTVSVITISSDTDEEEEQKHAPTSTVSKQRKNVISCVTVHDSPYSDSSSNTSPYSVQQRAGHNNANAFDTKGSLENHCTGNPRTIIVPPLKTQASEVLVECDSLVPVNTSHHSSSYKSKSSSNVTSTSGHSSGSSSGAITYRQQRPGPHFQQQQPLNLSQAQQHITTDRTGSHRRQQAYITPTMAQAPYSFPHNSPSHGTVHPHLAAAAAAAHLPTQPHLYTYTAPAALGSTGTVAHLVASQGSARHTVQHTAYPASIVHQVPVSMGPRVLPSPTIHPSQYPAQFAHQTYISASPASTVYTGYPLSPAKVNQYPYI
Procedure, shortened: as §1

TXK = biological target: T24, TXK (Homo sapiens, UniProt P42681)
T24 construct: purchased DiscoveRx KINOMEscan
Procedure, shortened: as §1

DDR2 = biological target: T25, DDR2 (Homo sapiens, UniProt Q16832)
T25 construct: purchased DiscoveRx KINOMEscan
Procedure, shortened: as §1

SRC = biological target: T26, SRC (Homo sapiens, UniProt P12931)
T26 construct: purchased DiscoveRx KINOMEscan
T26 sequence (P12931 whole entry): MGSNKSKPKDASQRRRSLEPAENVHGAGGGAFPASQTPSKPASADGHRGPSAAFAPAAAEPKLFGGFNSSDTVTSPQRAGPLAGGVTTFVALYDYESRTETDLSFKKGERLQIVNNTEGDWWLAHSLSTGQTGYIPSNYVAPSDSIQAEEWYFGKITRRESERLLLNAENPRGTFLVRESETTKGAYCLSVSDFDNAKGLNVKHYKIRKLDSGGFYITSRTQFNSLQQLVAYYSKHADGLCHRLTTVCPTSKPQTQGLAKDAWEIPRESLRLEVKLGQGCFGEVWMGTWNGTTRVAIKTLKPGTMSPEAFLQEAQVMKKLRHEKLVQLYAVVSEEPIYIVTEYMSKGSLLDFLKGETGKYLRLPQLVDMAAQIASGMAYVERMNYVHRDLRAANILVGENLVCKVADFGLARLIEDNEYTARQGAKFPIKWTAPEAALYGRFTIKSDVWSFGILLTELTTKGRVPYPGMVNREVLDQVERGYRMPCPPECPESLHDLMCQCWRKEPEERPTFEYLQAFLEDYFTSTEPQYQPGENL
Procedure, shortened: as §1

ROS1 = biological target: T27, ROS1 (Homo sapiens, UniProt P08922)
T27 construct: purchased DiscoveRx KINOMEscan
Procedure, shortened: as §1

SRPK1 = biological target: T28, SRPK1 (Homo sapiens, UniProt Q96SB4)
T28 construct: purchased DiscoveRx KINOMEscan
Procedure, shortened: as §1

LYN = biological target: T29, LYN (Homo sapiens, UniProt P07948)
T29 construct: purchased DiscoveRx KINOMEscan
T29 sequence (P07948 whole entry): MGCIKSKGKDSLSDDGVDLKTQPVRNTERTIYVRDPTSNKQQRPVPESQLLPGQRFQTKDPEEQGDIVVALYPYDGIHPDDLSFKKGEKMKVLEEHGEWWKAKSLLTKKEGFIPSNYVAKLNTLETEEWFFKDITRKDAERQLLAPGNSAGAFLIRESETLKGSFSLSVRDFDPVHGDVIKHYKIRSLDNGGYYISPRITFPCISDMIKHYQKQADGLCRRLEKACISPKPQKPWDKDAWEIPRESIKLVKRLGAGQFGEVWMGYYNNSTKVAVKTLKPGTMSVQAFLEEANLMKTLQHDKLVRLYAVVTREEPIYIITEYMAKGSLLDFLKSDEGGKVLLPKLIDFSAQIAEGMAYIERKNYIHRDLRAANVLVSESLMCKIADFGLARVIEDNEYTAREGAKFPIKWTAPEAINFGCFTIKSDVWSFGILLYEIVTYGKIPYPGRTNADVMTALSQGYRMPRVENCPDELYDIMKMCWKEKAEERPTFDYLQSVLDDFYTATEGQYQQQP
Procedure, shortened: as §1

GRK4 = biological target: T30, GRK4 (Homo sapiens, UniProt P32298)
T30 construct: purchased DiscoveRx KINOMEscan
T30 sequence (P32298 whole entry): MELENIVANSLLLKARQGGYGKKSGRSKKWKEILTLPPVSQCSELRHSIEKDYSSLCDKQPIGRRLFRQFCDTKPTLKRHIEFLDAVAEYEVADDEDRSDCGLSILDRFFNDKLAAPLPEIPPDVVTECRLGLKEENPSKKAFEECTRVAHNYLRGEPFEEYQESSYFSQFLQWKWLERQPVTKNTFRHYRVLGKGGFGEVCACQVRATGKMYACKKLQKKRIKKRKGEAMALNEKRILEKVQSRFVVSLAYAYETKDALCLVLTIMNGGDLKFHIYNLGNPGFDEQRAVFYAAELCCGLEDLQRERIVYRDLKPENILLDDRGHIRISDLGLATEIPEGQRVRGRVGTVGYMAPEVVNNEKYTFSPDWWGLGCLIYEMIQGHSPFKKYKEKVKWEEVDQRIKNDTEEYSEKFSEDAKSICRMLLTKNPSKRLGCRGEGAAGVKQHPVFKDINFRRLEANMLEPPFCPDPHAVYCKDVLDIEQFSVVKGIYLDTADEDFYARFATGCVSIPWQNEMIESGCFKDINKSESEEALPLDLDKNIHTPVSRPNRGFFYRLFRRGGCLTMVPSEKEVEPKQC
Procedure, shortened: as §1

Cc1ccc(C2=Nc3cccnc3S(=O)(=O)c3ccccc32)cc1 [TBPT, 6-(p-tolyl)benzo[f] pyrido[2,3-b][1,4] thiazepine 11,11-dioxide]
remaining binding at 5 µM (PHKG2; 5 μM): 100%
remaining binding at 10 µM (PHKG2; 10 μM): 100%
remaining binding at 5 µM (NEK9; 5 μM): 100%
remaining binding at 10 µM (NEK9; 10 μM): 88%
remaining binding at 5 µM (ALK; 5 μM): 100%
remaining binding at 10 µM (ALK; 10 μM): 71%
remaining binding at 5 µM (EPHA7; 5 μM): 93%
remaining binding at 10 µM (EPHA7; 10 μM): 100%
remaining binding at 5 µM (WEE1; 5 μM): 100%
remaining binding at 10 µM (WEE1; 10 μM): 96%
remaining binding at 5 µM (CAMK2D; 5 μM): 94%
remaining binding at 10 µM (CAMK2D; 10 μM): 100%
remaining binding at 5 µM (TNK2; 5 μM): 100%
remaining binding at 10 µM (TNK2; 10 μM): 100%
remaining binding at 5 µM ([1]; 5 μM): 100%
remaining binding at 10 µM ([1]; 10 μM): 90%
remaining binding at 5 µM (TNK1; 5 μM): 100%
remaining binding at 10 µM (TNK1; 10 μM): 97%
remaining binding at 5 µM (PKN1; 5 μM): 90%
remaining binding at 10 µM (PKN1; 10 μM): 100%
remaining binding at 5 µM (EGFR(E746-A750del); 5 μM): 81%
remaining binding at 10 µM (EGFR(E746-A750del); 10 μM): 100%
remaining binding at 5 µM (IKK-epsilon; 5 μM): 80%
remaining binding at 10 µM (IKK-epsilon; 10 μM): 100%
remaining binding at 5 µM (ERK5; 5 μM): 100%
remaining binding at 10 µM (ERK5; 10 μM): 96%
remaining binding at 5 µM (JNK2; 5 μM): 99%
remaining binding at 10 µM (JNK2; 10 μM): 100%
remaining binding at 5 µM (TAOK3; 5 μM): 89%
remaining binding at 10 µM (TAOK3; 10 μM): 100%
remaining binding at 5 µM (SgK110; 5 μM): 100%
remaining binding at 10 µM (SgK110; 10 μM): 100%
remaining binding at 5 µM (PAK7; 5 μM): 78%
remaining binding at 10 µM (PAK7; 10 μM): 95%
remaining binding at 5 µM (YANK2; 5 μM): 99%
remaining binding at 10 µM (YANK2; 10 μM): 100%
remaining binding at 5 µM (DRAK2; 5 μM): 100%
remaining binding at 10 µM (DRAK2; 10 μM): 91%
remaining binding at 5 µM (MEK3; 5 μM): 100%
remaining binding at 10 µM (MEK3; 10 μM): 100%
remaining binding at 5 µM (MAPKAPK2; 5 μM): 100%
remaining binding at 10 µM (MAPKAPK2; 10 μM): 100%
remaining binding at 5 µM (PRKR; 5 μM): 97%
remaining binding at 10 µM (PRKR; 10 μM): 90%
remaining binding at 5 µM (MST1; 5 μM): 93%
remaining binding at 10 µM (MST1; 10 μM): 100%
remaining binding at 5 µM (HIPK2; 5 μM): 100%
remaining binding at 10 µM (HIPK2; 10 μM): 100%
remaining binding at 5 µM (TXK; 5 μM): 100%
remaining binding at 10 µM (TXK; 10 μM): 75%
remaining binding at 5 µM (DDR2; 5 μM): 100%
remaining binding at 10 µM (DDR2; 10 μM): 99%
remaining binding at 5 µM (SRC; 5 μM): 87%
remaining binding at 10 µM (SRC; 10 μM): 100%
remaining binding at 5 µM (ROS1; 5 μM): 100%
remaining binding at 10 µM (ROS1; 10 μM): 100%
remaining binding at 5 µM (SRPK1; 5 μM): 88%
remaining binding at 10 µM (SRPK1; 10 μM): 67%
remaining binding at 5 µM (LYN; 5 μM): 87%
remaining binding at 10 µM (LYN; 10 μM): 100%
remaining binding at 5 µM (GRK4; 5 μM): 100%
remaining binding at 10 µM (GRK4; 10 μM): 95%
